For 66 compounds, Ki results are on record in patent publication US20180170941A1 (priority 2016, published 2018).

pKi: −log10 of the molar value.

The target of the first assay is T1, α5β3γ2 GABAA receptors (Ltk cell membranes) (Homo sapiens, UniProt P18507+P31644).
T1 construct: membranes
T1 sequence (P31644 32-462): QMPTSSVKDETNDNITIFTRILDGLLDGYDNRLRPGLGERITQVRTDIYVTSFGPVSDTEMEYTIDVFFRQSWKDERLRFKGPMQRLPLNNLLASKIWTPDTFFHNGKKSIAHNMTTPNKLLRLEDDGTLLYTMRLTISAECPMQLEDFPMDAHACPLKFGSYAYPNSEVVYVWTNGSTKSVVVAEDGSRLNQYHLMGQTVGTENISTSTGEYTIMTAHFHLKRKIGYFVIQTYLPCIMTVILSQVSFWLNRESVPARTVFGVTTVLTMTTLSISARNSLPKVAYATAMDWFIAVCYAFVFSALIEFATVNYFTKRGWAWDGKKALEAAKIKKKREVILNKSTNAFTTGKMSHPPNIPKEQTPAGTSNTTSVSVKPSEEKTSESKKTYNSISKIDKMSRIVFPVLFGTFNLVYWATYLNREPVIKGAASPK
T1 sequence (P28472 26-473 partner): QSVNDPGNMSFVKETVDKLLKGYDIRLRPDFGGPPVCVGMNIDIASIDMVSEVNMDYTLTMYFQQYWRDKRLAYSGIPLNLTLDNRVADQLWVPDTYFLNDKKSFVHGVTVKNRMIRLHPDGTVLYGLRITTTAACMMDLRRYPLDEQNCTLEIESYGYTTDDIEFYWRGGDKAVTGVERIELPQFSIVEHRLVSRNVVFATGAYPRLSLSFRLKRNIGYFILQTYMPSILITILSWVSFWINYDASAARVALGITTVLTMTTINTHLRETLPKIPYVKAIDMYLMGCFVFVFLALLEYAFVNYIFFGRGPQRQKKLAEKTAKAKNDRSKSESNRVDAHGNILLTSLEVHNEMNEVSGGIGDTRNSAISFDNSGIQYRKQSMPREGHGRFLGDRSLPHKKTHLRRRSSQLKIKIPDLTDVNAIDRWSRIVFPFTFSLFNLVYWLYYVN
T1 sequence (P18507 40-475): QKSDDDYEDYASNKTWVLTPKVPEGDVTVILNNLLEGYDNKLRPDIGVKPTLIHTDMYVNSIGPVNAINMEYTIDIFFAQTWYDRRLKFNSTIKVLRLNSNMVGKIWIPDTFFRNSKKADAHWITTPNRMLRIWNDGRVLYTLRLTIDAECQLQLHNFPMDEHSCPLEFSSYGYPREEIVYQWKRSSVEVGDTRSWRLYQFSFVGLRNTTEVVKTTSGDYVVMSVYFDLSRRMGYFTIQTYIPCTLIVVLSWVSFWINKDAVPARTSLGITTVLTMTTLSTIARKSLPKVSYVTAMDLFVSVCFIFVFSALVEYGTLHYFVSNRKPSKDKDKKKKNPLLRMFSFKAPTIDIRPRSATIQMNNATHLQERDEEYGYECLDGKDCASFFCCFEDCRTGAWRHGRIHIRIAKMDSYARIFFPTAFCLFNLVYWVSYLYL
Description: Binding activity of test compounds on GABAAR: inhibition of [3H]Ro15-1788 binding.
Details: not given
The protocol:
Tissue culture and Membrane Preparation: The binding was performed on Ltk cells stably expressing GABAA receptors: α1β1γ2, α2β3γ2, α3β3γ2 and α5β3γ2 (provided by Merck Co., NJ, USA). Cells were seeded in 100 mm culture plates in DMEM/F12 medium containing 10% serum and antibiotics in 5% CO2 and allowed to grow for 1-2 days. GABAAR expression was then induced by dexamethasone as follows: 0.5 μM for 1 day for α5 containing and 2μM for 3 days for α1, α2 and α3 containing GABAARs. After induction, cells were collected by scraping into Dulbecco's Phosphate buffered saline (DPBS, pH 7.4, Invitrogen, Carlsbad, Calif., USA) and centrifuged at 150×g for 10 min. The pellet was washed twice by re-suspension and centrifugation. The cell pellets from at least 5 different preps were combined, suspended in the binding assay buffer (50 mM KH2P4; 1 mM EDTA; 0.2 M KCl, pH 7.4) and membranes prepared by sonication (3-5 times, 30 sec) using Branson Sonifier 150 (G.Heinmann, Germany). Protein content was determined using BCA assay (Bio-Rad Labs, Reinach, Switzerland) with Bovine Serum Albumin (Sigma Aldrich, St. Louis, Mo., USA) as the standard. Aliquots were prepared and stored at −20° C. for further use in binding assays.
Ligand Binding: Saturation binding curves were obtained by incubating membranes with increasing concentrations (0.01-8 nM) of [^3H]Ro15-1788 (Flumazepil, 75-85 Ci/mmol, PerkinElmer, MA, USA), with nonspecific binding measured in the presence of 10 μM diazepam.
All binding assays were performed for 1 h at 4° C. in assay buffer. The total assay volume was 0.5 ml containing 0.2 mg/ml protein for α5 and 0.4 mg/ml for α1, α2, and α3 containing GABAAR membranes. Incubations were terminated by filtration through GF/B filters using a 24-Cell Harvestor (Brandel, Gaithersburg, Md., USA) followed by 3 washes with ice-cold assay buffer. Filters were transferred to scintillation vials, 5 ml scintillation liquid added, vortex-mixed and kept in dark. Next day, radioactivity was obtained using a scintillation counter (Beckman Coulter, Brea, Calif., USA). All assays were performed in triplicate.
Data Analyses: Saturation and inhibition curves were obtained using GraphPad Prism software (GraphPad Software, Inc., CA, USA).
The term pKi denotes the Ki on a negative log10 scale, so that one unit is a factor of ten. For `CCC(=O)c1ncn2c1Cn1c(COc3ccccc3)nnc1-c1cc(OC)ccc1-2` [Compound 123], the pKi was < 6.00.
Still for that read-out and setting: in the case of `COCc1nnc2n1Cc1cncn1-c1ccc(OC)cc1-2` [Compound 131] it was < 6.00; in that of `COc1ccc2c(c1)-c1nnc(COc3ccccc3)n1Cc1c(Cc3ccccc3)ncn1-2` [Compound 142], < 6.00; in that of `Cc1ccc(S(=O)(=O)c2ncn3c2Cc2c(C)nnn2-c2cc(F)ccc2-3)cc1` [Compound 143], < 6.00.

The same assay, now with this note: GABA α5 Binding Ki Values, inhibition of [3H]Ro15-1788 binding; reported as ranges.
As for `CCOC(=O)c1ncn2c1Cc1c(C)nnn1-c1cc(OC)ccc1-2` [Compound 1], the pKi was > 7.00.
`CCOC(=O)c1ncn2c1Cc1c(C)nnn1-c1cc(F)ccc1-2` [Compound 2]: the pKi was > 7.00.
Same read-out and setting: to `CCOC(=O)c1ncn2c1Cc1c(C)nnn1-c1ccccc1-2` [Compound 3] belongs > 7.00; to `CCOC(=O)c1ncn2c1Cc1c(Cc3ccccc3)nnn1-c1cc(OC)ccc1-2` [Compound 4], > 7.00; to `CCOC(=O)c1ncn2c1Cc1c(Cc3ccccc3)nnn1-c1ccccc1-2` [Compound 5], > 7.00.
Still for that read-out and setting: in the case of `CCOC(=O)c1ncn2c1Cc1c(Cc3ccccc3)nnn1-c1cc(F)ccc1-2` [Compound 6] it was > 7.00; in that of `CCOC(=O)c1ncn2c1Cc1c(C)cnn1-c1cc(OC)ccc1-2` [Compound 7], > 7.00; in that of `CCOC(=O)c1ncn2c1Cc1c(Cc3ccccc3)cnn1-c1cc(OC)ccc1-2` [Compound 8], > 7.00.
Same read-out and setting: in the case of `CCOC(=O)c1ncn2c1Cc1c(COc3ccccc3)nnn1-c1cc(OC)ccc1-2` [Compound 9] it was > 7.00; in that of `CCOC(=O)c1ncn2c1Cc1c(COc3ccc(F)cc3)nnn1-c1cc(OC)ccc1-2` [Compound 10], > 7.00.
`CCOC(=O)c1ncn2c1Cc1c(COc3cccc(OC)c3)nnn1-c1cc(OC)ccc1-2` [Compound 11]: the pKi was > 7.00.
The same measure, in the same setting: to `CCOC(=O)c1ncn2c1Cc1c(COc3ccc(C)cc3C)nnn1-c1cc(OC)ccc1-2` [Compound 12] belongs > 7.00; to `CCOC(=O)c1ncn2c1Cc1c(Cc3ccc(C)cc3)nnn1-c1cc(F)ccc1-2` [Compound 44], > 7.00.
Still for that read-out and setting: to `CCOC(=O)c1ncn2c1Cc1c(Cc3ccc(Cl)cc3)nnn1-c1cc(F)ccc1-2` [Compound 45] belongs > 7.00; to `CCOC(=O)c1ncn2c1Cc1c(Cc3ccc(F)cc3)nnn1-c1cc(F)ccc1-2` [Compound 46], > 7.00.
Turning to `CCOC(=O)c1ncn2c1Cc1c(Cc3ccc(Cl)cc3)nnn1-c1ccccc1-2` [Compound 47], the pKi is > 7.00.
Turning to `CCOC(=O)c1ncn2c1Cc1c(CN3CCCC3)nnn1-c1cc(OC)ccc1-2` [Compound 48], the pKi was > 7.00.
Still for that read-out and setting: to `CCOC(=O)c1ncn2c1Cc1c(CN3CCOCC3)nnn1-c1cc(OC)ccc1-2` [Compound 49] belongs > 7.00; to `CCOC(=O)c1ncn2c1Cc1c(CN(CC)CC)nnn1-c1cc(OC)ccc1-2` [Compound 50], 6.00 to 7.00.
As for `CCOC(=O)c1ncn2c1Cc1c(CN(C)Cc3ccccc3)nnn1-c1cc(OC)ccc1-2` [Compound 51], the pKi was > 7.00.
The same measure, in the same setting: in the case of `CCOC(=O)c1ncn2c1Cc1c(Cc3cccc(Cl)c3)nnn1-c1cc(OC)ccc1-2` [Compound 52] it was > 7.00; in that of `CCOC(=O)c1ncn2c1Cc1c(Cc3cccc(C#N)c3)nnn1-c1cc(OC)ccc1-2` [Compound 53], > 7.00; in that of `CCOC(=O)c1ncn2c1Cn1c(COc3ccccc3)nnc1-c1cc(OC)ccc1-2` [Compound 55], > 7.00.
Regarding `CCOC(=O)c1ncn2c1Cn1c(COc3ccc(F)cc3)nnc1-c1cc(OC)ccc1-2` [Compound 56], the negative-log Ki (pKi) was > 7.00.
With `CCOC(=O)c1ncn2c1Cc1c(Cc3ccccc3)nnn1-c1cc(C)ccc1-2` [Compound 101], the pKi was > 7.00.
The same measure, in the same setting: to `CCOC(=O)c1ncn2c1Cc1c(C)nnn1-c1cc(C)ccc1-2` [Compound 102] belongs > 7.00; to `CCOC(=O)c1ncn2c1Cn1c(COC)nnc1-c1cc(OC)ccc1-2` [Compound 103], > 7.00.
On the same count and under the same terms, in the case of `CCOC(=O)c1ncn2c1Cn1c(Oc3ccccc3)nnc1-c1cc(OC)ccc1-2` [Compound 104] it was > 7.00; in that of `CCOC(=O)c1ncn2c1Cn1c(Oc3cccc(OC)c3)nnc1-c1cc(OC)ccc1-2` [Compound 105], > 7.00.
Same read-out and setting: to `CCOC(=O)c1ncn2c1Cn1c(Br)nnc1-c1cc(OC)ccc1-2` [Compound 106] belongs > 7.00.
As to `CCOC(=O)c1ncn2c1Cc1c(COc3ccccc3)nnn1-c1cc(F)ccc1-2` [Compound 107], the pKi is > 7.00.
Same read-out and setting: in the case of `CCOC(=O)c1ncn2c1Cc1c(Cc3ccccc3Cl)nnn1-c1cc(OC)ccc1-2` [Compound 108] it was > 7.00; in that of `Cc1noc(-c2ncn3c2Cc2c(Cc4ccccc4)nnn2-c2cc(F)ccc2-3)n1` [Compound 109], > 7.00.
Regarding `Cc1noc(-c2ncn3c2Cc2c(C)nnn2-c2cc(F)ccc2-3)n1` [Compound 110], the pKi was 6.00 to 7.00.
On the same count and under the same terms, to `Cc1nnn2c1Cc1c(C(=O)OC(C)C)ncn1-c1ccc(F)cc1-2` [Compound 112] belongs > 7.00; to `Cc1nnn2c1Cc1c(C(=O)OCC(C)(C)C)ncn1-c1ccc(F)cc1-2` [Compound 113], 6.00 to 7.00; to `Cc1nnn2c1Cc1c(C(=O)OCC(F)(F)F)ncn1-c1ccc(F)cc1-2` [Compound 114], > 7.00.
The same measure, in the same setting: in the case of `Cc1nnn2c1Cc1c(C#N)ncn1-c1ccccc1-2` [Compound 115] it was 6.00 to 7.00; in that of `Cc1nnn2c1Cc1c(C#N)ncn1-c1ccc(F)cc1-2` [Compound 116], < 6.00; in that of `Cc1nnn2c1Cc1c(C(N)=O)ncn1-c1ccccc1-2` [Compound 117], < 6.00.
On the same count and under the same terms, in the case of `COc1ccc2c(c1)-c1nnc(COc3ccccc3)n1Cc1c(-c3nc(C)no3)ncn1-2` [Compound 118] it was > 7.00.
`COc1ccc2c(c1)-c1nnc(COc3ccccc3)n1Cc1c(C(=O)OCC(C)(C)C)ncn1-2` [Compound 119] gave a pKi of 6.00 to 7.00.
In the case of `COc1ccc2c(c1)-c1nnc(COc3ccccc3)n1Cc1c(C(=O)OC(C)C)ncn1-2` [Compound 120], the pKi is > 7.00.
Same read-out and setting: to `Cc1ncn2c1Cc1c(C)nnn1-c1ccccc1-2` [Compound 121] belongs < 6.00; to `COc1ccc2c(c1)-c1nnc(COc3ccccc3)n1Cc1c(C#N)ncn1-2` [Compound 122], > 7.00; to `COc1ccc2c(c1)-c1nnc(COc3ccccc3)n1Cc1c(C(F)F)ncn1-2` [Compound 124], 6.00 to 7.00.
Same read-out and setting: in the case of `CCC(=O)c1ncn2c1Cc1c(C)nnn1-c1ccccc1-2` [Compound 125] it was 6.00 to 7.00; in that of `Cc1noc(-c2ncn3c2Cc2c(C)nnn2-c2ccccc2-3)n1` [Compound 126], > 7.00; in that of `Cc1nc(-c2ncn3c2Cc2c(C)nnn2-c2ccccc2-3)no1` [Compound 127], > 7.00.
Same read-out and setting: to `COCc1nnc2n1Cc1c(-c3nc(C)no3)ncn1-c1ccc(OC)cc1-2` [Compound 128] belongs > 7.00; to `COCc1nnc2n1Cc1c(Br)ncn1-c1ccc(OC)cc1-2` [Compound 129], > 7.00; to `COCc1nnc2n1Cc1c(-c3nc(C(C)C)no3)ncn1-c1ccc(OC)cc1-2` [Compound 130], > 7.00.
Consider `Cc1nnn2c1Cc1c(-c3nc(C(C)C)no3)ncn1-c1ccccc1-2` [Compound 132], for which the pKi is > 7.00.
The same measure, in the same setting: in the case of `Cc1nnn2c1Cc1c(-c3noc(C(C)C)n3)ncn1-c1ccccc1-2` [Compound 133] it was > 7.00; in that of `CCOCc1ncn2c1Cc1c(COCC)nnn1-c1ccccc1-2` [Compound 134], 6.00 to 7.00.
As to `Cc1ncn2c1Cc1c(C)nnn1-c1cc(F)ccc1-2` [Compound 135], the pKi is < 6.00.
Still for that read-out and setting: to `Cc1nnn2c1Cc1c(Br)ncn1-c1ccc(F)cc1-2` [Compound 136] belongs 6.00 to 7.00.
On to `CCOC(=O)c1ncn2c1Cn1c(COc3ccccc3)nnc1-c1cc(F)ccc1-2` [Compound 137], for which the pKi was > 7.00.
On the same count and under the same terms, to `Cc1noc(-c2ncn3c2Cn2c(COc4ccccc4)nnc2-c2cc(F)ccc2-3)n1` [Compound 138] belongs 6.00 to 7.00; to `Cc1nnn2c1Cc1c(-c3ccccc3)ncn1-c1ccc(F)cc1-2` [Compound 139], 6.00 to 7.00.
Still for that read-out and setting: to `Cc1nnn2c1Cc1c(-c3cccnc3)ncn1-c1ccc(F)cc1-2` [Compound 140] belongs < 6.00.
Still for that read-out and setting: to `CC(C)c1noc(-c2ncn3c2Cn2c(COc4ccccc4)nnc2-c2cc(F)ccc2-3)n1` [Compound 141] belongs 6.00 to 7.00.
As to `Cc1ccc(S(=O)(=O)c2ncn3c2Cc2c(C)nnn2-c2cc(F)ccc2-3)cc1` [Compound 143], the negative-log Ki (pKi) was 6.00 to 7.00.
